In brackets after ≈: the same amount, converted by molar mass.
What was measured:
[1] = test system: Candida tropicalis; assay: Antifungal activity, agar dilution method; format: cell-based; details: C. tropicalis, read-out: Parts Per Million Inhibitions of C. tropicalis
Procedure: (§1) various compounds of this invention display antifungal and anti-yeast activity.
(§2) In Table IX below are listed the antifungal activity of a number of compounds encompassed in the present invention. These were determined by the agar dilution method as described in Chapters 2 and 3 of Methods in Microbiology, Vol. 7B, edited by J. R. Norris and D. W. Ribbons, Academic Press, New York, 1972.

[2] = test system: Trichophyton mentagrophytes; assay: Antifungal activity, agar dilution method; format: cell-based, Trichophyton mentagrophytes (ATCC No. 8757 and 9129); details: T. mentagrophytes, read-out: Parts Per Million Inhibitions of T. mentagrophytes
Procedure: as §1, §2

[3] = test system: Candida albicans; assay: Antifungal activity, agar dilution method; format: cell-based, Candida albicans (ATCC No. 10231); details: C. albicans, read-out: Parts Per Million Inhibitions of C. albicans
Procedure: as §1, §2

[4] = test system: Trichophyton ajelloi; assay: Antifungal activity, agar dilution method; format: cell-based; details: Arthroderma uncinatum, T. ajelloi, read-out: Parts Per Million Inhibitions of T. ajelloi
Procedure: as §1, §2

[5] = test system: cell-mediated immune response to the antigen, Mycobacterium tuberculosis H37Ra; assay: delayed hypersensitivity test; format: in vivo, mouse; details: Mus musculus, sc; mice; dose reducing edema of cell-mediated immune response by 60% vs control; read-out: D.H.S. (ED60)
Procedure: The immunosuppressant activities of the compounds of this invention were determined via the hemolysin test in mice and by the delayed hypersensitivity test. The hemolysin test used is that described in Methods in Immunology, edited by D. H. Campbell et al, W. A. Benjamin, New York 1963 pages 172-175, and measures humeral or antibody response. The delayed hypersensitivity test measures the effect of a test compound on the ability of a subject mouse to mount a cell-mediated immune response to the antigen, Mycobacterium tuberculosis H37Ra. The mouse is sensitized to the antigen by subcutaneous administration in the base of the tail. The development of the delayed hypersensitivity response may be measured at any time beginning six days after sensitization but is usually done on the ninth day as follows: The right hind paw is injected with purified protein derivative (tuberculin) while the left hind paw (control) receives physiological saline. Both paw volumes are measured after twenty-four hours and significant increase in the volume of the right hand paw is taken as a measure of an effective delayed hypersensitivity response. All compounds were administered by the subcutaneous route.
The D.H.S. (ED60) mg./kg. s.c. value appearing in column 3 is an expression of the effectiveness of the drug in reducing the edema that accompanies the cell-mediated immune response. It is a measure of the number of milligrams per kilogram of body weight of the drug administered subcutaneously which is required to reduce the edema of the cell-mediated immune response by 60% when compared to the control.

[6] = test system: carrageenan rat paw edema; assay: Rat Paw Edema Assay, Oral Dosing; format: in vivo; details: 4 h, 100 mg/kg oral, four hours after drug, read-out: % Difference from Control
Procedure: (§3) The anti-inflammatory activity of representative compounds of this invention was determined by the rat paw edema assay both by local administration (Table XI below) and by oral dosing (Table XII below). For the oral dosing, the procedure of C. A. Winter, E. A. Risley and G. W. Nuss, Proc. Soc. Exp. Biol. Med. III, 544 (1962) was employed with measurement taken four hours after the drug was administered. The local administration tests were carried out similarly except the irritant (carrageenan) and the test compound were injected simultaneously at time zero.
(§4) Tables XI and XII report the anti-inflammatory activity of the compounds tested as % difference in the edema or swelling as compared with the control. These Tables also give the response in many instances of more than one dose level of the same drug.

[7] = test system: Trichophyton rubrum; assay: Antifungal activity, agar dilution method; format: cell-based, Trichophyton rubrum (ATCC No. 10218 and 14001); details: T. rubrum, read-out: Parts Per Million Inhibitions of T. rubrum
Procedure: as §1, §2

[8] = test system: humeral or antibody response; assay: hemolysin test in mice; format: in vivo; details: Mus musculus, sc, dose reducing antibody activity by 50% vs control, read-out: HL(ED50)
[9] = test system: carrageenan rat paw edema; assay: Rat Paw Edema Assay, Local Administration; format: in vivo; details: read-out: % Difference from Control; for change in vivo at 100 mg/kg: local administration; for change in vivo at 0.001 mg: 1 μg; for change in vivo at 0.001 mg / change in vivo at 0.01 mg / change in vivo at 0.1 mg: injected directly into paw; for change in vivo at 0.01 mg: 10 μg; for change in vivo at 0.1 mg: 100 μg
Procedure: as §3, §4

[10] = test system: immune response; assay: immunosuppressant activity (general statement); format: in vivo, mice; details: statement in words
[11] = test system: Aspergillus niger; assay: Antifungal activity, agar dilution method; format: cell-based, Aspergillus niger (ATCC No. 16404); details: A. niger, read-out: Parts Per Million Inhibitions of A. niger
Procedure: as §1, §2

| Structure (SMILES) | MIC [1] | MIC [2] | MIC [3] | MIC [4] | ED60 [5] | change in vivo at 100 mg/kg [6] | MIC [7] | ED50 [8] | change in vivo at 100 mg/kg [9] | immunosuppressant activity [10] | change in vivo at 0.001 mg [9] | change in vivo at 0.01 mg [9] | change in vivo at 0.1 mg [9] | MIC [11] |
| --- | --- | --- | --- | --- | --- | --- | --- | --- | --- | --- | --- | --- | --- | --- |
| CCCCc1nc2ccccc2n2ccnc12 [Compound 113] | 100 µg/mL (≈ 444 µM) | 100 µg/mL (≈ 444 µM) | 100 µg/mL (≈ 444 µM) | – | – | – | – | – | – | – | – | – | – | – |
| C1=CCC(c2nc3ccccc3n3ccnc23)CC1 (stereo not drawn) [Compound 130] | 100 µg/mL (≈ 401 µM) | 100 µg/mL (≈ 401 µM) | 100 µg/mL (≈ 401 µM) | 100 µg/mL (≈ 401 µM) | – | – | – | – | – | – | – | – | – | – |
| Clc1ccc(-c2nc3ccccc3n3ccnc23)cc1 [Compound 140] | – | – | – | – | 1.15 mg/kg | -35% | < 0.5 µg/mL | 0.26 mg/kg | -78% | – | – | – | – | – |
| c1ccc(-c2nc3ccccc3n3ccnc23)cc1 [Compound 131, 4-phenylimidazo[1,2-a]quinoxaline, reference compound] | – | 16 µg/mL (≈ 65.2 µM) | – | – | 81 mg/kg | -52% | 2 µg/mL (≈ 8.15 µM) | 18 mg/kg | – | only minor activity | – | – | – | – |
| c1ccc(Cc2nc3ccccc3n3ccnc23)cc1 [Compound 124] | 100 µg/mL (≈ 386 µM) | 100 µg/mL (≈ 386 µM) | 100 µg/mL (≈ 386 µM) | 100 µg/mL (≈ 386 µM) | – | – | 8 µg/mL (≈ 30.9 µM) | – | – | – | – | – | – | – |
| CCCCCc1nc2ccccc2n2ccnc12 [Compound 114] | – | 16 µg/mL (≈ 66.9 µM) | – | – | – | -61% | 1 µg/mL (≈ 4.18 µM) | – | – | – | 68.2% | -30% | -132% | – |
| Nc1ccc(-c2nc3ccccc3n3ccnc23)cc1 [Compound 153] | 100 µg/mL (≈ 384 µM) | – | – | – | 5.7 mg/kg | – | – | 1.2 mg/kg | – | – | – | – | – | – |
| c1ccc2c(c1)ncc1nccn12 [Compound 109, imidazo[1,2-a]quinoxaline, reference compound] | – | 128 µg/mL (≈ 757 µM) | – | – | > 50 mg/kg | -17% | 32 µg/mL (≈ 189 µM) | > 50 mg/kg | – | lacks immunosuppressant activity | -30.8% | -3.9% | 31.6% | – |
| Cc1nc2ccccc2n2ccnc12 [Compound 110] | – | 128 µg/mL (≈ 699 µM) | – | – | 50 mg/kg | -43% | 64 µg/mL (≈ 349 µM) | – | -74% | – | – | – | – | 128 µg/mL (≈ 699 µM) |
| Cc1cccc(-c2nc3ccccc3n3ccnc23)c1 [Compound 133] | 100 µg/mL (≈ 386 µM) | 8 µg/mL (≈ 30.9 µM) | 100 µg/mL (≈ 386 µM) | 8 µg/mL (≈ 30.9 µM) | 32 mg/kg | -17% | 8 µg/mL (≈ 30.9 µM) | 0.75 mg/kg | – | – | – | – | – | – |
| O=C(Nc1ccccc1-n1ccnc1)c1ccc(-c2ccccc2)cc1 [Compound 40] | 100 µg/mL (≈ 295 µM) | 100 µg/mL (≈ 295 µM) | 100 µg/mL (≈ 295 µM) | 100 µg/mL (≈ 295 µM) | – | -43% | – | – | – | – | – | – | – | – |
